≈ marks a conversion by molar mass, not a printed value. Like-named read-outs stand apart in the source and are kept apart here.
What was measured:
[1] = biological target: T1, Acetoacetyl-coenzyme A thiolase (Rattus norvegicus, UniProt Q5XI22); assay: Acetoacetyl-coenzyme A thiolase inhibition, coupled spectrophotometric assay (NADH oxidation at 340 nm); type: biochemical, Sprague Dawley rats
T1 construct: prepared from the livers of Sprague Dawley rats treated in the diet for one week with 0.075% lovastatin to induce the enzyme; from tissue; host or cells: liver of lovastatin-treated Sprague Dawley rats
Experimental: Acetoacetyl-coenzyme A thiolase was prepared from the livers of Sprague Dawley rats treated in the diet for one week with 0.075% lovastatin to induce the enzyme. […] The 0.06 M eluate described by Mehrabian et al. contained the acetoacetyl-coenzyme A thiolase. The isolate was concentrated by ammonium sulfate precipitation, dissolved in the buffer used for elution, and stored at -70°C.
Reaction was measured at room temperature for a time period necessary to produce a measurable reaction rate. An IC₅₀, the concentration that inhibits 50% of the acetoacetyl-coenzyme A thiolase activity, was determined for each test compound. […]

[2] = system: Candida albicans MY 1055; assay: Antifungal assay, minimum inhibitory concentration; type: cell-based; conditions: lowest concentration that inhibits visible growth, Yeast Nitrogen Base/0.5% glucose, 37°C for 18 hours, starting inoculum 3-5 x 10⁻⁴ CFU/ml
Experimental: Antifungal activity was determined against Candida albicans MY 1055, a yeast strain maintained by Merck and Co; Rahway, New Jersey. Minimum inhibitory concentrations were determined using a starting inoculum of […]. The medium was Yeast Nitrogen Base/0.5% glucose. Test compounds were dissolved in a minimum amount of 50% aqueous ethanol and diluted to final concentrations with yeast medium. Samples were incubated at 37°C for 18 hours. The minimum inhibitory concentration (MIC), reported in µg/ml, is the lowest concentration of test compound that inhibits visible growth.

[3] = enzyme from rat liver (lovastatin-induced), pH 7.5, room temperature, 2.85 mM acetoacetyl-coenzyme A, read-out: IC₅₀

T1 sequence (Q5XI22 whole entry): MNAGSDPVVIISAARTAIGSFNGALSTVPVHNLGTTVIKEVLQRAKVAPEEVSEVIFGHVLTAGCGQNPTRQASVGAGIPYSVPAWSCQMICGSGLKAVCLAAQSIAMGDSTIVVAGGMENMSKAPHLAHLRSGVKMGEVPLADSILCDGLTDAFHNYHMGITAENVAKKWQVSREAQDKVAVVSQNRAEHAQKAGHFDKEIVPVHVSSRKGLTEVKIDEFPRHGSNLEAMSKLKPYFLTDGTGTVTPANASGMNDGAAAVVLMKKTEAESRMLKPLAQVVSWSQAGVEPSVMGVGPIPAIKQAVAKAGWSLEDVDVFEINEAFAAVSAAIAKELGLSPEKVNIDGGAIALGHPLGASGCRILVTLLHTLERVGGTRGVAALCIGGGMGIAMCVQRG

5-(1(R)-Methoxy-2,4,6-octatriynyl)-2-oxo-4(S),5(S)-1,3 dioxolane-4-heptanoic acid, methyl ester [Ex. 13]
IC50 [1, 3]: 560 nM
MIC [2]: 5 µg/mL

COC(=O)CCCCCC[C@@H]1OC(=O)O[C@H]1C(O)C#CC#CC#C[Si](C)(C)C (single isomer, unassigned) [Ex. 5]
IC50 [1]: 62 nM
MIC ([2]; read-out: MIC): 0.078 µg/mL (≈ 0.193 µM)

COC(=O)CCCCCC[C@@H]1OC(=O)O[C@H]1C(O)C#CC#CC#C[Si](C)(C)C (single isomer, unassigned) [Ex. 6]
IC50 [1]: 990 nM
MIC ([2]; read-out: MIC): 0.6 µg/mL (≈ 1.48 µM)

C#CC#CC#C[C@@H](O)[C@@H]1OC(=O)O[C@H]1CCCCCCC(=O)OC [Ex. 17, 5-(1(R)-Hydroxy-2,4,6-heptatriynyl)-2-oxo-4(S),5(S)-1,3-dioxolane-4-heptanoic acid, methyl ester]
IC50 [1, 3]: 24 nM

C#CC#CC#C[C@@H](OC(C)=O)[C@@H]1OC(=O)O[C@H]1CCCCCCC(=O)OC [Ex. 18, 5-(1(R)-(Acetyloxy)-2,4,6-heptatriynyl)-2-oxo-4(S),5(S)-1,3-dioxolane-4-heptanoic acid, methyl ester]
IC50 [1, 3]: 150 nM

C#CC#CC#C[C@@H](OC(C)=O)[C@@H]1OC(=O)O[C@H]1CCCCCCC(=O)O [Ex. 19, 5-(1(R)-(Acetyloxy)-2,4,6-heptatriynyl)-2-oxo-4(S),5(S)-1,3-dioxolane-4-heptanoic acid]
IC50 [1, 3]: 9 nM

C#CC#CC#C[C@@H](OC)[C@@H]1OC(=O)O[C@H]1CCCCCCC(=O)OC [Ex. 20, 5-(1(R)-Methoxy-2,4,6-heptatriynyl)-2-oxo-4(S),5(S)-1,3-dioxolane-4 heptanoic acid, methyl ester]
IC50 [1, 3]: 46 nM
